Holding throughout (format): cell-based, male wister rats
Assay [1] has as its system fat cells. The assay can be described thus: Decomposition of the fat in the fat cell by ACTH. Conditions: ACTH 1 μg/ml + saponin 20 μg/ml, 37° C., two hours; for inhibition at 20 µg/mL: Rattus norvegicus, 2 h, read-out: Rate of inhibition. The protocol:
(§1) Fat tissues were separated from the epididymides of male wister rats weighing 150 to 180 g each, and fat cells were obtained therefrom in accordance with the Rodbell's method [M. Rodbell, J. Biol. Chem., 239, 375 (1964)]. A small section was prepared from 4 g of the fat tissue, and placed in 10 ml. of Krebs-Ringer bicarbonate buffer containing 0.4 g of albumin, 10 mg of collagenase and 5 mg of glucose, and having a pH value of 7.4. It was heated at 37° C. for 50 minutes, and subjected to centrifugal separation at 300 rpm, whereby a floating fat cell layer was separated. Added into the fat cell were 10 ml. of the aforesaid buffer (pH 7.4), and the solution was carefully stirred to wash the fat cell, followed by centrifugal separation at 300 rpm for 30 seconds. This procedure was repeated twice, whereby the fat cells were washed perfectly, and these fat cells were used for the tests.
The fat cells obtained by treating with collagenase were suspended in Krebs-Ringer bicarbonate buffer (KRB) having a pH value of 7.4. Placed into a test tube were 0.3 ml. of the solution thus obtained (containing 100 mg of fat cells), 0.1 ml. of ACTH solution containing 1 μg of ACTH, 0.1 ml. of each saponin solution containing 500 μg of saponin, and 0.3 ml. of a 5% alubumin solution in KRB, and having a pH value adjusted to 7.4. They were heated at 37° C. for two hours, and the amount of the resulting free fatty acid was determined in accordance with the Dole's method [V. P. Dole, J. Biol. Chem., 35, 150 (1958)].
Namely, 3 ml. of Dole's extract were separated into the reaction system, and 1 ml. of a thymol blue solution was added thereinto. Nitrogen was blown into the resulting solution, and the solution was titrated with a 0.008 N aqueous solution of sodium hydroxide, while it was being stirred. The amount of the resulting free fatty acid was determined in accordance with a calibration curve.
The rate of inhibition against fat decomposition was obtained in accordance with the following equation: [formula] wherein A stands for the amount of the free fatty acid formed by addition of ACTH along in the amount of 1 μg/ml.; and B stands for the amount of the free fatty acid formed by addition of ACTH and saponin in the amount of 1 μg/ml. and 20 μg/ml., respectively.

The subject of assay [2] is fat cells. The assay can be described thus: Decomposition by adrenalin of the fat in the fat cells. The settings on record: adrenalin 1 μg/ml + saponin 20 μg/ml, 37° C., two hours; for inhibition at 20 µg/mL: Rattus norvegicus, 2 h, read-out: Rate of inhibition. The protocol: A small section was prepared from 4 g of the fat tissue, and placed in 10 ml. of Krebs-Ringer bicarbonate buffer containing 0.4 g of albumin, 10 mg of collagenase and 5 mg of glucose, and having a pH value of 7.4. […] Added into the fat cell were 10 ml. of the aforesaid buffer (pH 7.4), and the solution was carefully stirred to wash the fat cell, followed by centrifugal separation at 300 rpm for 30 seconds. This procedure was repeated twice, whereby the fat cells were washed perfectly, and these fat cells were used for the tests.
The fat cells obtained by treating with collagenase were suspended in Krebs-Ringer phosphate buffer (KRP) having a pH value of 7.4. Placed into a test tube were 0.3 ml. of the solution thus obtained, and containing 100 mg of fat cells, 0.1 ml. of an adrenalin solution containing 1 μg of adrenalin, 0.1 ml. of a saponin solution containing 20 μg of saponin, and 0.5 ml. of a 5% albumin solution in KRP, and having a pH value adjusted to 7.4. […] More specifically, 3 ml. of Dole's extract were placed in the reaction system, and after they were shaked for five minutes, 3 ml. of heptane were dispensed, and 1 ml. of a thymol blue solution was added thereinto. The resulting solution was titrated with a 0.008 N aqueous solution of sodium hydroxide, while it was being stirred with nitrogen, and the amount of the resulting free fatty acid was determined in accordance with a calibration curve.
The rate of inhibition was obtained in accordance with the equation shown at (1) above.

In assay [3] the test system is fat cells. The assay can be described thus: Synthesis of fat from glucose in fat cells. Conditions: 20 μg/ml; for Power for synthesis of neutral fat from glucose: 37° C., half an hour; for activation at 20 µg/mL: Rattus norvegicus, 0.5 h, none = 100, read-out: Rate of promotion. The procedure:
as §1
^14 C-glucose having its carbon atoms marked with radioactivity was reacted upon fat cells, and a Geiger count was read to determine the amount of the glucose participating in the fat synthesis and incorporated into the fat cells as a neutral fat, whereby gynosaponins were tested for their effects on the power of the glucose for fat synthesis.
More specifically, the fat cells obtained by treating with collagenase were suspended in KRB, and 0.35 ml. of the resulting solution containing 100 mg of fat cells was placed into a test tube with 0.1 ml. of each saponin solution containing 20 μg of saponin, 0.5 ml. of a 5% albumin solution in KRB, containing 10 mM glucose and having a pH value of 7.4, and 0.05 ml. of a ^14 C-glucose solution which was a 0.5 μCi KRP solution having a pH value of 7.4 and containing 10 mM glucose. They were heated at 37° C. for half an hour, and after 5 ml. of Dole's extract were added and the whole was shaked for five minutes, 3 ml. of heptane and 2 ml. of water were added, and the whole was shaked for five minutes. 3 ml. of a heptane layer were separated, and after an alkaline ethanol solution (0.5 N sodium hydroxide solution, 50 % ethanol solution) was added in the amount of 3 ml., the whole was shaked for five minutes. Then, 1 ml. of an ethanol layer was separated, and 10 ml. of a toluene scintillation solution were added thereinto, followed by determination according to the method of Skipski et al. [Biochem. Biophys. Acta, 106, 386 (1965)].

As to `CC(C)=CCC[C@](C)(O[C@@H]1O[C@H](CO[C@@H]2O[C@@H](C)[C@H](O)[C@@H](O)[C@H]2O)[C@@H](O)[C@H](O)[C@H]1O)[C@H]1CC[C@]2(C)[C@@H]1[C@H](O)C[C@@H]1[C@@]3(C)CC[C@H](O[C@@H]4O[C@H](CO)[C@@H](O)[C@H](O)[C@H]4O)C(C)(C)[C@@H]3CC[C@]12C` [gynosaponin J, 20S-Protopanaxadiol-3-O-β-D-glucopyranoside-20-O-[α-L-rhamnopyranosyl (1→6)-β-D-glucopyranoside]], in the assay with fat cells [1], the “Free fatty acid formed by decomposition of fat” value (from here on “Free fatty acid formed”) came to 5.3 μ Eq/g and the inhibition (usually the change of the read-out against control, counted positive when it falls) at 20 µg/mL was 37%. Also, in the assay with fat cells [2], the inhibition at 20 µg/mL came to 7% and the “Free fatty acid formed” value is listed as 13.1 μ Eq/g. Further, in the assay with fat cells [3], the “Power for synthesis of neutral fat from glucose” value (“Power for synthesis” below) is reported as 11,650 cpm/g and the activation at 20 µg/mL was 54%.

As to `CC(C)=CCC[C@](C)(O[C@@H]1O[C@H](CO)[C@@H](O)[C@H](O)[C@H]1O)[C@H]1CC[C@]2(C)[C@@H]1[C@H](O)C[C@@H]1[C@@]3(C)CC[C@H](O[C@@H]4O[C@H](CO[C@@H]5O[C@@H](C)[C@H](O)[C@@H](O)[C@H]5O)[C@@H](O)[C@H](O)[C@H]4O)C(C)(C)[C@@H]3CC[C@]12C` [gynosaponin K, 20S-Protopanaxadiol-3-O-[α-L-rhamnopyranosyl (1→6)-β-D-glucopyranoside]-20-O-β-D-glucopyranoside], in the assay on fat cells [1], the “Free fatty acid formed” value is 6.1 μ Eq/g and the inhibition at 20 µg/mL was 27%. Moreover, in the assay with fat cells [2], the inhibition at 20 µg/mL was found to be 2% and the “Free fatty acid formed” value is recorded as 13.8 μ Eq/g. Moreover, in the assay with fat cells [3], the “Power for synthesis” value is reported as 13,600 cpm/g and the activation at 20 µg/mL worked out at 63%.

As for `CC(C)=CCC[C@](C)(O[C@@H]1O[C@H](CO[C@@H]2OC[C@@H](O)[C@H](O)[C@H]2O)[C@@H](O)[C@H](O)[C@H]1O)[C@H]1CC[C@]2(C)[C@@H]1[C@H](O)C[C@@H]1[C@@]3(C)CC[C@H](O)C(C)(C)[C@@H]3CC[C@]12C` [gynosaponin M, 20S-Protopanaxadiol-20-O-[β-D-xylopyranosyl (1→6)-β-D-glucopyranoside]], in the assay with fat cells [1], the “Free fatty acid formed” value amounted to 6.4 μ Eq/g and the inhibition at 20 µg/mL came to 24%. Further, in the assay on fat cells [2], the inhibition at 20 µg/mL amounted to 4% and the “Free fatty acid formed” value amounted to 13.5 μ Eq/g. Further, in the assay with fat cells [3], the “Power for synthesis” value is listed as 12,650 cpm/g and the activation at 20 µg/mL came to 59%.

`CC(C)=CCC[C@](C)(O[C@@H]1O[C@H](CO[C@@H]2O[C@@H](C)[C@H](O)[C@@H](O)[C@H]2O)[C@@H](O)[C@H](O)[C@H]1O)[C@H]1CC[C@]2(C)[C@@H]1[C@H](O)C[C@@H]1[C@@]3(C)CC[C@H](O)C(C)(C)[C@@H]3CC[C@]12C` [gynosaponin N, 20S-Protopanaxadiol-20-O-[α-L-rhamnopyranosyl (1→6)-β-D-glucopyranoside]]: in the assay on fat cells [1], the “Free fatty acid formed” value amounted to 5.2 μ Eq/g and the inhibition at 20 µg/mL is 38%. Also, in the assay on fat cells [2], the inhibition at 20 µg/mL is 6% and the “Free fatty acid formed” value was 13.3 μ Eq/g. In the assay on fat cells [3], the “Power for synthesis” value is on record as 9,870 cpm/g and the activation at 20 µg/mL is 46%.

Take `CC(=CCCC(C)(OC1OC(COC2OC(C)C(O)C(O)C2O)C(O)C(O)C1O)C1CCC2(C)C1C(O)CC1C3(C)CCC(OC4OC(CO)C(O)C(O)C4OC4OC(CO)C(O)C(O)C4O)C(C)(C)C3CCC12C)CO` [gynosaponin P, 20S,26-Hydroxyprotopanaxadiol-3-O-[β-D-glucopyranosyl (1→2)-β-D-glucopyranoside]-20-O-[α-L-rhamnopyranosyl (1→6)-β-D-glucopyranoside]]: in the assay with fat cells [1], the “Free fatty acid formed” value is 6.6 μ Eq/g and the inhibition at 20 µg/mL is 21%. In the assay on fat cells [2], the inhibition at 20 µg/mL was 10% and the “Free fatty acid formed” value was determined as 12.7 μ Eq/g. Besides, in the assay on fat cells [3], the “Power for synthesis” value was 8,165 cpm/g and the activation at 20 µg/mL is 38%.

For the molecule `CC(C)=CCC[C@](C)(O[C@@H]1O[C@H](CO[C@@H]2OC[C@@H](O)[C@H](O)[C@H]2O)[C@@H](O)[C@H](O)[C@H]1O)[C@H]1CC[C@]2(C)[C@@H]1[C@H](O)C[C@@H]1[C@@]3(C)CC[C@H](O[C@@H]4O[C@H](CO)[C@@H](O)[C@H](O)[C@H]4O[C@@H]4OC[C@@H](O)[C@H](O)[C@H]4O)C(C)(C)[C@@H]3CC[C@]12C` [gynosaponin Q, 20S-Protopanaxadiol-3-O-[β-D-xylopyranosyl (1→2)-β-D-glucopyranoside]-20-O-[β-D-xylopyranosyl (1→6)-β-D-glucopyranoside]], in the assay with fat cells [1], the “Free fatty acid formed” value turned out to be 5.8 μ Eq/g and the inhibition at 20 µg/mL came to 31%. Besides, in the assay with fat cells [2], the inhibition at 20 µg/mL was 4% and the “Free fatty acid formed” value was 13.5 μ Eq/g. In addition, in the assay on fat cells [3], the “Power for synthesis” value was 11,620 cpm/g and the activation at 20 µg/mL was found to be 54%.

For the molecule `CC(C)=CCC[C@](C)(O[C@@H]1O[C@H](CO[C@@H]2O[C@@H](C)[C@H](O)[C@@H](O)[C@H]2O)[C@@H](O)[C@H](O)[C@H]1O)[C@H]1CC[C@]2(C)[C@@H]1[C@H](O)C[C@@H]1[C@@]3(C)CC[C@H](O[C@@H]4O[C@H](CO)[C@@H](O)[C@H](O)[C@H]4O[C@@H]4OC[C@@H](O)[C@H](O)[C@H]4O)C(C)(C)[C@@H]3CC[C@]12C` [gynosaponin R, 20S-Protopanaxadiol-3-O-[β-D-xylopyranosyl (1→2)-β-D-glucopyranoside]-20-O-[α-L-rhamnopyranosyl (1→6)-β-D-glucopyranoside]], in the assay on fat cells [1], the “Free fatty acid formed” value was 6.2 μ Eq/g and the inhibition at 20 µg/mL was found to be 26%. In the assay on fat cells [2], the inhibition at 20 µg/mL was found to be 1% and the “Free fatty acid formed” value worked out at 14.0 μ Eq/g. In addition, in the assay on fat cells [3], the “Power for synthesis” value is recorded as 12,600 cpm/g and the activation at 20 µg/mL came to 59%.

Source of the values: patent publication US4339442A, “Gynosaponins, their use and a process for preparing the same” (priority 1980, dated 1982).
